Test results: US6489118B2, “Allergenic proteins and peptides from dog dander and uses therefor” (ImmuLogic Pharmaceutical Corporation, priority 1992, dated 2002)

Legend:
[1] = tested on: human T cell lines primed with recombinant Can f I; test: Secondary human T cell proliferation assay (3H thymidine incorporation); type: cell-based; conditions: for percentage of positive responders (T cell stimulation index of at least two): tested dog allergic individuals
Text: In one embodiment, peptides which have Can f I or Can f II T cell stimulating activity (i.e., the peptide comprises at least one T cell epitope) can be identified using an algorithm which predicts the presence of T cell epitopes in a protein sequence, such as the algorithm described by Hill et al., Journal of Immunology, 147:189-197 (1991). The algorithm of Hill et al. predicts the location of T cell epitopes in a protein by the presence of certain patterns within the sequence which are likely to bind MHC and therefore may contain T cell epitopes. Based on the Hill et al. algorithm, two 13 amino acid peptides (discussed in Example 10) have been identified and produced synthetically. Such peptides were tested for T cell activity as described above (e.g., by measuring cellular uptake of tritiated thymidine). Specifically, in Example 10, human T cell stimulating activity was tested by culturing T cells obtained from an individual sensitive to Can f I (i.e., an individual who has an IgE mediated immune response to Can f I) with a peptide derived from Can f I and proliferation of T cells in response to the peptide was determined, e.g., by measuring cellular uptake of tritiated thymidine. Stimulation indices for responses by T cells to peptides were calculated as the maximum CPM in response to a peptide divided by the control CPM. A stimulation index (S.I.) equal to or greater than two times the background level was considered “positive”. Positive results were used to calculate the mean stimulation index for each peptide for the group of patients tested (See FIG. 25). Preferred peptides of this invention comprise at least one T cell epitope and have a mean T cell stimulation index of greater than or equal to 2.0. A peptide having a mean T cell stimulation index of greater than or equal to 2.0 in a significant number of dog dander allergen sensitive patients tested is considered useful as a therapeutic agent. Preferred peptides have a mean T cell stimulation index of at least 2.5, more preferably at least 3.0, more preferably at least 3.5, more preferably at least 4.0, more preferably at least 5.0 and most preferably at least about 6. For example, peptides having a Can f I activity and having a mean T cell stimulation index of at least 5, as indicated by data shown in FIG. 25, include Construct 1 (SEQ ID NO: 105), Construct 2 (SEQ ID NO: 106), and Construct 3 (SEQ ID NO:107). T cell epitopes can also be predicted and determined as described above for peptides derived from Can f II.
In addition, preferred peptides have a positivity index (P.I.) of at least about 60, more preferably about 100, more preferably at least about 200 and most preferably at least about 300. The positivity index for a peptide is determined by multiplying the mean T cell stimulation index by the percent of individuals, in a population of individuals sensitive to dog dander allergens (e.g., preferably a population of at least 12 individuals, more preferably a population of at least 30 individuals or more), who have a T cell stimulation index to such peptide of at least 2.0. Thus, the positivity index represents both the strength of a T cell response to a peptide (S.I.) and the frequency of a T cell response to a peptide in a population of individuals sensitive to dog dander allergens.
In order to perform in vitro assays of human T cell proliferative response to Can f I and the five Can f I peptides described above, whole blood obtained from subjects allergic to Can f I in a skin prick test was passed through a Lymphocyte Separation Media (LSM) to remove platelets, red blood cells and granulocytes. The resulting peripheral blood mononuclear cells (PBMC) were stimulated with 50 μg/ml of recombinant Can f I produced as described in Example 2 for 6 days in RPMI 1640 medium supplemented with 5% heat inactivated human AB serum, 2 mM L-glutamine,10 mM HEPES, 50 μM 2-mercapto-ethanol and 100 U/ml penicillin and streptomycin. […]

human IgE [2] = test: Western blot of protein preparations probed with patient plasma IgE; type: binding; conditions: plasma of dog allergic patient #901, 1:20 dilution; 5 μg/lane
Protocol: Western Blot analysis of four different protein preparations as potential sources Can f I was performed. The four different prepparations used for Western blotting were: dog hair extract, dog saliva, bacterially expressed rCan f I (used for the ELISA) and rCan f I as expressed in a mammalian cell culture system. These preparations were loaded on a 15% acrylamide SDS-PAGE (lanes 1-4, respectively) at 5 μg/lane. The protein concentrations were based on the Bicinchoninic acid (BCA) assay (Pierce, Rockford, Ill.). Following electrophoresis, the proteins were transferred to nitrocellulose and stained with India Ink. The nitrocellulose sections were blocked by incubation in Tween solution with 1% milk/1% BSA for 30 minutes room temperature, then probed with patient #901 plasma or negative control patient #250 at a 1:20 dilution in tween mild solution. This first antibody incubation was carried out overnight at room temperature. Biotinylated goat anti-human IgE (KPL) was used as the second antibody at a 1:5000 dilution for a two hour incubation. Streptavidin-HRPO (1:20,000 dilution) and the ECL Western Blot Detection system (Amersham, Arlington Heights, Ill.) were used for detection by chemiluminescence. A 20 second exposure was performed and the film developed. The results from this assay show no recognition of the protein preparations by patient #250 IgE. […]

human IgE [3] = test: Direct binding of human IgE to recombinant Can f I by ELISA
Protocol: An ELISA plate (IMMULON II Dynatech, Chantilly, Va.) was coated with bacterially expressed recombinant Can f I, (rCan f I) at 0.5 μg/well in PBS-Tween and incubated overnight at 4° C. The coating antigen was removed and the wells were blocked with 0.5% gelatin in PBS, 200 μl/well for two hours at room temperature. Plasma from a skin test positive dog allergic patient, #901, was serially diluted with PBS-Tween and 100 μl was added per well and incubated overnight at 4° C. (the plasma dilutions were tested in duplicate). The second antibody (biotinylated goat anti-human IgE 1:1000, Kirkegaard & Perry Laboratories) was added at 100 μl/well for one hour at room temperature. This solution was removed and streptavidin-HRPO at 1:10,000, (Southern Biotecnology Associates, Inc. Birmingham, Ala.) was added for one hour at room temperature. TMB Membrane Peroxidase Substrate system (Kirkegaard & Perry Laboratories) was freshly mixed and added at 100 μl. The color was allowed to develop for 2-5 minutes. The reaction was stopped by the addition of 100 μl/well of 1M phosphoric acid. The plate was read on a Mircoplate EL 310 Autoreader (Biotek Instruments, Winooski, Vt.) with a 450 nm filter. The absorbance levels of duplicate wells were averaged. […] A known negative patient (#250) was also tested and shown to be negative by this assay.

[4] = tested on: IgE binding to dog dander extracts; conditions: RAST analysis; cited from earlier work
human IgE [5] = test: Direct binding ELISA of human IgE to native and recombinant Can f II
Protocol: Plasma samples from 14 dog-allergic patients (skin test 4+) were assayed for IgE binding to native Can f II and rCan f II. An ELISA plate (Immulon II Dynatech, Chantilly, Va.) was coated with native and bacterially expressed recombinant Can f II at 0.5 μg/well in PBS-Tween and incubated overnight at 4° C. The coating antigen was removed and the wells were blocked with 0.5% gelatin in PBS, 200 μl/well for two hours at room temperature. Binding of human IgE to the coating antigen was detected using biotinylated goat-anti-human IgE, streptavidin linked to peroxidase and TMB substrate. Reactions were read on a plate reader at 450 nm (A450). Of 14 plasma samples tested for IgE to native Can f II, 5 contained detectable antibody binding (FIG. 22A), with plasma from patients #901 and #227 containg the highest levels. Similarly, of 23 plasma samples tested for IgE to recombinant, bacterially expressed Can f II, several contained detectable antibody binding (FIGS. 22B and C).

[6] = tested on: IgE of dog allergic patients; conditions: purified allergen; cited from earlier work

Construct 2: recombinant fragment of Can f I, amino acids 56 through 108 (SEQ ID NO: 106), expressed in E. coli (TVVLHKTSEPGKYTAYEGQRVVFIQPSPVRDHYILYCEGELHGRQIRMAKLLG)
percentage of positive responders (T cell stimulation index of at least two) [1]: 73%

A0096: 13 amino acid synthetic peptide, Can f I amino acids 42 through 54 (SEQ ID NO:109) (AKITMLTNGQCQN) [Construct A0096]
percentage of positive responders (T cell stimulation index of at least two) [1]: 43%

Construct 1: recombinant fragment of Can f I, amino acids 1 through 65 (SEQ ID NO: 105), expressed in E. coli with His6
percentage of positive responders (T cell stimulation index of at least two) [1]: 64%

Construct 3: recombinant fragment of Can f I, amino acids 90 through 148 (SEQ ID NO: 107), expressed in E. coli
percentage of positive responders (T cell stimulation index of at least two) [1]: 82%

A0095: 13 amino acid synthetic peptide, Can f I amino acids 7 through 19 (SEQ ID NO:108) (GKWYLKAMTADQE) [Construct A0095]
positivity index (mean S.I. x percent positive responders) ([1]; FIG. 10): 129 | mean T cell stimulation index (S.I.) ([1]; mean of positive responses (S.I. >= 2), T cell lines from dog allergic patients primed with rCan f I, FIG. 25): 3.0 | percentage of positive responders (T cell stimulation index of at least two) [1]: 43%

rCan f I: bacterially expressed recombinant Can f I dog allergen with His6 reporter group
IgE binding on Western blot (human IgE [2]): distinct binding | IgE binding level relative to background (human IgE [3]; plasma of dog allergic patient #901 at 1/162 dilution, antigen 0.5 μg/well): two-fold above background | IgE binding, negative control patient (human IgE [3]; plasma of known negative patient #250): negative | percentage of positive responders (T cell stimulation index of at least two) [1]: 89%

mammalian expressed rCan f I: recombinant Can f I expressed in a mammalian cell culture system (NIH 3T3), COOH-terminal His6
IgE binding on Western blot (human IgE [2]): extremely faint

B1: Can f II: minor dog dander allergen, affinity purified native protein (de Groot et al.) (protein)
chain: EGNHEEPQGGLEELSGRWHSVALASNKSDLIKPWGHFRVFIHSMSAKDGNLHGDILIPQDGQCEKVSLTAFKTATSNKFDLEYWGHNDLYLAEVDPKSYLILYMINQYNDDTSLVAHLMVRDLSRQQDFLPAFESVCEDIGLHKDQIVVLSDDDRCQGSRD
competition with the IgE directed against dog dander extract [4]: 23% | number of plasma samples with detectable IgE antibody binding (human IgE [5]; of 14 plasma samples from dog-allergic patients (skin test 4+), FIG. 22A): 5 | dog allergic patients whose IgE reacts with the allergen [6]: 66%

B2: recombinant, bacterially expressed Can f II: bacterially expressed recombinant Can f II with His6 reporter group (protein)
chain: B1 chain
modifications: left off: small tags and cut ends
notes: bacterially expressed recombinant Can f II with His6 reporter group
number of plasma samples with detectable IgE antibody binding (human IgE [5]; of 23 plasma samples, FIGS. 22B and C): several

B3: Can f I: major dog allergen of Canis familiaris; mature protein of SEQ ID NO: 2; immunoaffinity purified in cited work (protein)
chain: MKTLLLTIGFSLIAILQAQDTPALGKDTVAVSGKWYLKAMTADQEVPEKPDSVTPMILKAQKGGNLEAKITMLTNGQCQNITVVLHKTSEPGKYTAYEGQRVVFIQPSPVRDHYILYCEGELHGRQIRMAKLLGRDPEQSQEALEDFREFSRAKGLNQEILELAQSETCSPGGQ
depletion of IgE binding to dog dander extracts [4]: 50-70%
